# Target: T1, recombinant human GST-Syk (Homo sapiens, UniProt P43405)
# T1 construct: purchased Carna Biosciences 08-176
# Assay: Homogeneous Time-Resolved Fluorescence (HTRF) assay for the recombinant human Syk enzyme
# Format: biochemical
# Conditions: recombinant human GST-Syk 5 pM, ATP 25 μM, 10-dose titration 10 μM to 0.508 nM; read-out: rhSYK Activity IC50
# Outline: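 GST-hSyk fusion protein phosphorylated a peptide for 45 min at room temperature. The reaction was quenched with 2 nM Eu-anti-phosphotyrosine antibody and 70 nM SA-APC in 15 mM Tris pH 7.5, 40 mM EDTA, 0.01% Tween 20. The HTRF signal was read after 30 min.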
row,SMILES,IC50 [nM]
1,"Cc1cc(Nc2cc(C(F)F)ccn2)nc(-c2cn(C3CCCCC3O)nn2)c1 (single isomer, unassigned) [Example 7.23, 2-[4-(6-{[4-(difluoromethyl)pyridin-2-yl]amino}-4-methylpyridin-2-yl)-1H-1,2,3-triazol-1-yl]cyclohexanol]",3.9
2,"Cc1cc(Nc2cc(C(F)(F)F)ccn2)nc(-c2cn(CC(O)COCC(F)(F)F)nn2)c1 (stereo not drawn) [Example 4.32, 1-[4-(4 methyl-6-{[4-(trifluoromethyl)pyridin-2-yl]amino}pyridin-2-yl)-1H-1,2,3-triazol-1-yl]-3-(2,2,2-trifluoroethoxy)propan-2-ol]",4.8
3,"Cc1cc(Nc2cc(C(F)(F)F)ccn2)nc(-c2cn(CC3(N)CC3)nn2)c1 [Example 5.112, 6-{1-[(1-aminocyclopropyl)methyl]-1H-1,2,3-triazol-4-yl}-4-methyl-N-[4-(trifluoromethyl)pyridin-2-yl]pyridin-2-amine]",17
4,"Cc1cc(Nc2nccc(C(F)(F)F)n2)cc(-c2cn(C[C@@H](C)CO)nn2)c1 [Example 5.73, (2R)-2-methyl-3-[4-(3-methyl-5-{[4-(trifluoromethyl)pyrimidin-2-yl]amino}phenyl)-1H-1,2,3-triazol-1-yl]propan-1-ol]",39.2
5,"Cc1cc(Nc2nccc(C(F)(F)F)n2)cc(-n2cc([C@]3(O)CC[C@@H](C(=O)OC(C)(C)C)CC3)nn2)c1 [Example 15.6, tert-butyl cis-4-hydroxy-4-[1-(3-methyl-5-{[4-(trifluoromethyl)pyrimidin-2-yl]amino}phenyl)-1H-1,2,3-triazol-4-yl]cyclohexanecarboxylate]",850
6,"Cc1cc(Nc2cc(C(F)(F)F)ccn2)nc(-c2cn(CC3(O)CCOCC3)nn2)c1 [Example 4.13, 4-{[4-(4-methyl-6-{[4-(trifluoromethyl)pyridin-2-yl]amino}pyridin-2-yl)-1H-1,2,3-triazol-1-yl]methyl}tetrahydro-2H-pyran-4-ol]",25.6
7,"Cc1cc(Nc2nccc(C(F)(F)F)n2)cc(-c2cn(C[C@H](C)CO)nn2)c1 [Example 5.72, (2S)-2-methyl-3-[4-(3-methyl-5-{[4-(trifluoromethyl)pyrimidin-2-yl]amino}phenyl)-1H-1,2,3-triazol-1-yl]propan-1-ol]",38.1
8,"Cc1cc(Nc2cc(C(F)(F)F)ccn2)nc(-c2cn(C3CCCCC(O)C3O)nn2)c1 (single isomer, unassigned) [Example 10.3, 3-[4-(4-methyl-6-{[4-(trifluoromethyl)pyridin-2-yl]amino}pyridin-2-yl)-1H-1,2,3-triazol-1-yl]cycloheptane-1,2-diol]",1
9,"Cc1cc(Nc2cc(C(F)(F)F)ccn2)nc(-c2cn(CCOC(N)=O)nn2)c1 [Example 5.110, 2-[4-(4-methyl-6-{[4-(trifluoromethyl)pyridin-2-yl]amino}pyridin-2-yl)-1H-1,2,3-triazol-1-yl]ethyl carbamate]",6.2
10,"Cc1cc(Nc2cc(C(F)(F)F)ccn2)nc(-c2cn(C3CCC(C(N)=O)C(C)(C)C3)nn2)c1 (single isomer, unassigned) [Example 1.8, 2,2-dimethyl-4-[4-(4-methyl-6-{[4-(trifluoromethyl)pyridin-2-yl]amino}pyridin-2-yl)-1H-1,2,3-triazol-1-yl]cyclohexanecarboxamide]",5.8
11,"Cc1cc(Nc2nccc(C(F)(F)F)n2)cc(-c2cn(CC(C)(O)C(C)(C)O)nn2)c1 (stereo not drawn) [Example 21.28, 2,3-dimethyl-1-[4-(3-methyl-5-{[4-(trifluoromethyl)pyrimidin-2-yl]amino}phenyl)-1H-1,2,3-triazol-1-yl]butane-2,3-diol]",13.2
12,"Cc1cc(Nc2cc(C(F)(F)F)ccn2)nc(-c2cn(C[C@@H]3CNC(=O)O3)nn2)c1 [Example 5.103, (5S)-5-{[4-(4-methyl-6-{[4-(trifluoromethyl)pyridin-2-yl]amino}pyridin-2-yl)-1H-1,2,3-triazol-1-yl]methyl}-1,3-oxazolidin-2-one]",1.9
13,"Cc1cc(Nc2nccc(C(F)F)n2)cc(-c2cn(C3CCCC(C)(O)C3O)nn2)c1 (single isomer, unassigned) [Example 29.2, 3-(4-(3-((4-(Difluoromethyl)pyrimidin-2-yl)amino)-5-methylphenyl)-1H-1,2,3-triazol-1-yl)-1-methylcyclohexane-1,2-diol]",30.7
14,"Cc1cc(Nc2nccc(C(F)(F)F)n2)cc(-c2cn(CCN)nn2)c1 [Example 5.74, N-{3-[1-(2-aminoethyl)-1H-1,2,3-triazol-4-yl]-5-methylphenyl}-4-(trifluoromethyl)pyrimidin-2-amine]",187
15,"Cc1cc(Nc2cc(C(F)(F)F)ccn2)nc(-c2cn([C@@H](C)C(=O)N3CCC[C@H]3C(N)=O)nn2)c1 [Example 1.20, 1-{(2S)-2-[4-(4-methyl-6-{[4-(trifluoromethyl)pyridin-2-yl]amino}pyridin-2-yl)-1H-1,2,3-triazol-1-yl]propanoyl}prolinamide]",87.2
16,"Cc1cc(Nc2ncc(F)c(C(F)F)n2)cc(-c2cn(CC3OC(=O)NC3C)nn2)c1 (single isomer, unassigned) [Example 7.40, 5-{[4-(3-{[4-(difluoromethyl)-5-fluoropyrimidin-2-yl]amino}-5-methylphenyl)-1H-1,2,3-triazol-1-yl]methyl}-4-methyl-1,3-oxazolidin-2-one]",25.7
17,"Cc1cc(Nc2cc(C(F)(F)F)ccn2)nc(-c2cn(C(C(N)=O)c3ccccc3)nn2)c1 (stereo not drawn) [Example 1.18, 2-[4-(4-methyl-6-{[4-(trifluoromethyl)pyridin-2-yl]amino}pyridin-2-yl)-1H-1,2,3-triazol-1-yl]-2-phenylacetamide]",11.8
18,"Cc1cc(Nc2cc(C(F)(F)F)ccn2)nc(-c2cn(CCO)nn2)c1 [Example 5.91, 2-[4-(4-methyl-6-{[4-(trifluoromethyl)pyridin-2-yl]amino}pyridin-2-yl)-1H-1,2,3-triazol-1-yl]ethanol]",8.3
19,"Cc1cc(Nc2cc(C(C)(C)C)ccn2)nc(-c2cn(C(C)c3ccc(C(=O)O)cc3)nn2)c1 (stereo not drawn) [Example 2.12, 4-[1-(4-{6-[(4-tert-butylpyridin-2-yl)amino]-4-methylpyridin-2-yl}-1H-1,2,3-triazol-1-yl)ethyl]benzoic acid]",5.5
20,"Cc1cc(Nc2cc(C(F)(F)F)ccn2)nc(-c2cn(Cc3ccc(C(=O)O)cc3)nn2)c1 [Example 5.42, 4-{[4-(4-methyl-6-{[4-(trifluoromethyl)pyridin-2-yl]amino}pyridin-2-yl)-1H-1,2,3-triazol-1-yl]methyl}benzoic acid]",3.3
21,"COC(=O)C(C)CCn1cc(-c2cc(C)cc(Nc3cc(C(F)(F)F)ccn3)n2)nn1 (racemic) [Example 5.85, methyl 2-methyl-4-[4-(4-methyl-6-{[4-(trifluoromethyl)pyridin-2-yl]amino}pyridin-2-yl)-1H-1,2,3-triazol-1-yl]butanoate]",80
22,"Cc1cc(Nc2cc(C(F)F)ccn2)nc(-c2cn(CC3(C)CNC(=O)O3)nn2)c1 (single isomer, unassigned) [Example 7.9, 5-((4-(6-((4-(difluoromethyl)pyridin-2-yl)amino)-4-methylpyridin-2-yl)-1H-1,2,3-triazol-1-yl)methyl)-5-methyloxazolidin-2-one]",8.4
23,"Cc1cc(Nc2nccc(C(F)F)n2)cc(-c2cn(CC3OC(=O)NC3C)nn2)c1 (single isomer, unassigned) [Example 7.6, 5-((4-(3-((4-(difluoromethyl)pyrimidin-2-yl)amino)-5-methylphenyl)-1H-1,2,3-triazol-1-yl)methyl)-4-methyloxazolidin-2-one]",10.2
24,"Cc1cc(Nc2cc(C(F)(F)F)ccn2)nc(-c2cn(C3CNCC3O)nn2)c1 (racemic) [Example 19.1, (+/−)-(3S,4R)-4-(4-(4-Methyl-6-((4-(trifluoromethyl)pyridin-2-yl)amino)pyridin-2-yl)-1H-1,2,3-triazol-1-yl)pyrrolidin-3-ol]",32.3
25,"Cc1cc(Nc2nccc(OCCO)n2)cc(-c2cn(C[C@H](O)CO)nn2)c1 [Example 5.8, (2S)-3-[4-(3-{[4-(2-hydroxyethoxy)pyrimidin-2-yl]amino}-5-methylphenyl)-1H-1,2,3-triazol-1-yl]propane-1,2-diol]",62
26,"Cc1cc(Nc2nccc(C(F)(F)F)n2)cc(-c2cn(CCS(C)(=O)=O)nn2)c1 [Example 5.62, N-(3-methyl-5-{1-[2-(methylsulfonyl)ethyl]-1H-1,2,3-triazol-4-yl}phenyl)-4-(trifluoromethyl)pyrimidin-2-amine]",46.4
27,"Cc1cc(Nc2cc(C(F)(F)F)ccn2)nc(-c2cn([C@H](C)C(=O)N3CCC[C@H]3C(=O)O)nn2)c1 [Example 3.12, 1-{(2R)-2-[4-(4-methyl-6-{[4-(trifluoromethyl)pyridin-2-yl]amino}pyridin-2-yl)-1H-1,2,3-triazol-1-yl]propanoyl}proline]",105
28,"Cc1cc(Nc2cc(C(F)(F)F)ccn2)nc(-c2cn(C3CS(=O)(=O)CC3O)nn2)c1 (stereo not drawn) [Example 5.90, 4-[4-(4-methyl-6-{[4-(trifluoromethyl)pyridin-2-yl]amino}pyridin-2-yl)-1H-1,2,3-triazol-1-yl]tetrahydrothiophene-3-ol 1,1-dioxide]",11.5
29,"COc1cc2c(cc1OC)CN(C(=O)C(C)n1cc(-c3cc(C)cc(Nc4cc(C(F)(F)F)ccn4)n3)nn1)C(C)C2 (stereo not drawn) [Example 1.34, 6-{1-[2-(6,7-dimethoxy-3-methyl-3,4-dihydroisoquinolin-2(1H)-yl)-1-methyl-2-oxoethyl]-1H-1,2,3-triazol-4-yl}-4-methyl-N-[4-(trifluoromethyl)pyridin-2-yl]pyridin-2-amine]",2700
30,"Cc1cc(Nc2nccc(OC(C)C)n2)cc(-c2cn(CC(C)(O)C(C)(C)O)nn2)c1 (stereo not drawn) [Example 21.13, 2,3-dimethyl-1-[4-(3-methyl-5-{[4-(1-methylethoxy)pyrimidin-2-yl]amino}phenyl)-1H-1,2,3-triazol-1-yl]butane-2,3-diol]",39.6

# From US9586931B2 (Merck Sharp & Dohme Corp., priority 2012, dated 2017)
